Measured values from ChEMBL document CHEMBL5303766, “Data for DCP probe FHT-2344” (2022).

How the values were obtained:
[1] = biological target: T1, Peripheral plasma membrane protein CASK (Homo sapiens) (UniProt O14936); assay: CASK SGC Tm panel (DSF); conditions: for ΔTm: Compound concentration 10.0 uM
T1 sequence (whole entry): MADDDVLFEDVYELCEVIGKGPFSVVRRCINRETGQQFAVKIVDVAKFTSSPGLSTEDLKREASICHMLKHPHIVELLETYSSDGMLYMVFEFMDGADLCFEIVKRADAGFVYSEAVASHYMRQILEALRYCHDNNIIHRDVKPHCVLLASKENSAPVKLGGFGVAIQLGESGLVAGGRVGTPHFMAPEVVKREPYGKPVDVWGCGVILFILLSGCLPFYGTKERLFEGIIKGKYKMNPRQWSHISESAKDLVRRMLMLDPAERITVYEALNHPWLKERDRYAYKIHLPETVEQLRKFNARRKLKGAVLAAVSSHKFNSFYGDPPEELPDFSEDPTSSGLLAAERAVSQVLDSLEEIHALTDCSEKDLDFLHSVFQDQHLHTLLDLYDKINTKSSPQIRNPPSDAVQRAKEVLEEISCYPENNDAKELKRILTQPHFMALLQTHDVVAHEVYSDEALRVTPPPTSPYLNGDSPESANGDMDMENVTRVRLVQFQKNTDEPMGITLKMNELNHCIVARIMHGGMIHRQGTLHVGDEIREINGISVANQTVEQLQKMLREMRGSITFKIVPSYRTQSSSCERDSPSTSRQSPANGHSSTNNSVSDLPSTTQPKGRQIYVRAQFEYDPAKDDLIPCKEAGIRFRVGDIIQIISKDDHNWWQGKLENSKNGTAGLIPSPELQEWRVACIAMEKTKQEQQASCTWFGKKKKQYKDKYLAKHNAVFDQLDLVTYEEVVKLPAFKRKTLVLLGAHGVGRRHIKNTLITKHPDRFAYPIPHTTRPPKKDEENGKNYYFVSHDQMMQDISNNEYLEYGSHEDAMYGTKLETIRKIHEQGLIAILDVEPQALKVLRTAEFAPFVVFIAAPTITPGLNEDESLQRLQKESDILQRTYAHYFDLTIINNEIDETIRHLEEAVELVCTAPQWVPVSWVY

[2] = biological target: Beta-2 adrenergic receptor (Homo sapiens) (UniProt P07550); conditions: Compound concentration 10.0 uM
[3] = biological target: T2, Mitogen-activated protein kinase 13 (Homo sapiens) (UniProt O15264); assay: MAPK13 SGC Tm panel (DSF); conditions: for ΔTm: Compound concentration 10.0 uM
T2 sequence (whole entry): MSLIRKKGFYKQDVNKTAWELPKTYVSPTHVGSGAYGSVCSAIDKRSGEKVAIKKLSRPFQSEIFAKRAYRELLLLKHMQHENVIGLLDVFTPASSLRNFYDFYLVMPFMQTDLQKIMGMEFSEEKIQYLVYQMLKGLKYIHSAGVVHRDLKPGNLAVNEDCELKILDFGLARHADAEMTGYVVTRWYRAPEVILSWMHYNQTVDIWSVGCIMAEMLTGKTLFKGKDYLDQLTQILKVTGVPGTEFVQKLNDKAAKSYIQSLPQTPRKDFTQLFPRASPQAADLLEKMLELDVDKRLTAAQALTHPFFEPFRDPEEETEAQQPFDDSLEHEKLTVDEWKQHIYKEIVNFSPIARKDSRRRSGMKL

[4] = biological target: T3, Serine/threonine-protein kinase PLK4 (Homo sapiens) (UniProt O00444); assay: PLK4 SGC Tm panel (DSF); conditions: for ΔTm: Compound concentration 10.0 uM
T3 sequence (whole entry): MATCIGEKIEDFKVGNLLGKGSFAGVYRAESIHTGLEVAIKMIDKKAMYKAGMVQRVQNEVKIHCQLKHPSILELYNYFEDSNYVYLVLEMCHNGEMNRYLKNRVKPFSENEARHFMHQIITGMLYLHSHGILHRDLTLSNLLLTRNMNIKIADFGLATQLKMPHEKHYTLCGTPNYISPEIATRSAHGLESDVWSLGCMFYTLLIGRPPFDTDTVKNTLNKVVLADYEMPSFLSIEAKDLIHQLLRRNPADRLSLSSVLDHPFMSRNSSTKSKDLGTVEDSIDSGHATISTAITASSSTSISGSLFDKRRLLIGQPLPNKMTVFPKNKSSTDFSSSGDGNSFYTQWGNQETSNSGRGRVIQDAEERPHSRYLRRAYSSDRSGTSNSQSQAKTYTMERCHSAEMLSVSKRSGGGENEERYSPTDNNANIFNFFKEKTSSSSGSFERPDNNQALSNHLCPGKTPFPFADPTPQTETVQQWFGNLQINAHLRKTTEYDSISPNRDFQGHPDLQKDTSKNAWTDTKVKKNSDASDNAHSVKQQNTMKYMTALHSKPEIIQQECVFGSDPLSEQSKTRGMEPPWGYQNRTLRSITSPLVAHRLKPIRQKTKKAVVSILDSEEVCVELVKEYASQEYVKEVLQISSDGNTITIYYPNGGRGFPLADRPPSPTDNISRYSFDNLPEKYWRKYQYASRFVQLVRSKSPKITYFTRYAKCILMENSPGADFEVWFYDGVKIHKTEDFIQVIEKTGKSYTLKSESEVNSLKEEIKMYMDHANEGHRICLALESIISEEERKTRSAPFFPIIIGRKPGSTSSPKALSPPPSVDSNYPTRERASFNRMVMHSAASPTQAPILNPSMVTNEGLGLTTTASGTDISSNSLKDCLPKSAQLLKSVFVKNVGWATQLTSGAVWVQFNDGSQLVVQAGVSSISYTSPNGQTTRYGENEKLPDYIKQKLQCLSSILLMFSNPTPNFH

Beta-2 adrenergic receptor (Homo sapiens), sequence (P07550 whole entry, looked up): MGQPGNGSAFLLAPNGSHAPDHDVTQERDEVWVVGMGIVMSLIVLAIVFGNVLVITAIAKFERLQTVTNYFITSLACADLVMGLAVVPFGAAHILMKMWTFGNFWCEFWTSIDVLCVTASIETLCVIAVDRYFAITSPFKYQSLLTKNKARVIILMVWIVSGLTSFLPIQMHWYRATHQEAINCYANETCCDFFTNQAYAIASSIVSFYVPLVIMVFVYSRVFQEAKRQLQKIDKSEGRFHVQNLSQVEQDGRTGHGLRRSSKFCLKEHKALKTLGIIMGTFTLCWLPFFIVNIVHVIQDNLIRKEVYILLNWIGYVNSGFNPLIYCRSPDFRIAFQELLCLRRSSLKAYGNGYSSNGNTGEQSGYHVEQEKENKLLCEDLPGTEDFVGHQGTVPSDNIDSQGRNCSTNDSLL

delta Tm Staurosporine positive control [1] | ΔTm [1] | inhibition [2] | delta Tm Staurosporine positive control [3] | ΔTm [3] | delta Tm Staurosporine positive control [4] | ΔTm [4] | SMILES
4.91 | 0.501 | 1.42% | 6.96 | 0.221 | 19.9 | 0.546 | COC[C@H](NC(=O)c1ccn(S(C)(=O)=O)c1)C(=O)Nc1nc(-c2cccc(-c3ccn(C)n3)c2)cs1
4.91 | 0.617 | -5.95% | 6.96 | 0.161 | 19.9 | 0.729 | C[C@H](NC(=O)c1cn(C2(C#N)CC2)cn1)C(=O)Nc1nc(-c2cccc(-c3ccn(C)n3)c2)cs1
